Reference: US8017612B2, “Piperazine compound and use thereof as a HCV polymerase inhibitor” (priority 2006, dated 2011)

Assays:
[1] = target: T1, HCV polymerase (NS5B) type 1b (Hepatitis C virus genotype 1b, UniProt P26663); experiment: Assay of enzyme (HCV polymerase) inhibitory activity, type 1b enzyme; assay type: biochemical, HCV BK strain (type 1b); details: HCV polymerase inhibitory activity IC50, 1b, type 1b enzyme
T1 construct: a region encoding NS5B (J Virol 1991 March, 65(3), 1105-13, 544 amino acids after deletion of 47 amino acids on the C-terminal); 6xHis (C); made in house; host or cells: Escherichia coli
Procedure, shortened: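 Rxn: NS5B 1b (BK, ΔC47, His6) 0.5 μg/ml; substrate RNA 5 μg/ml; ATP/GTP/CTP 50 μM, UTP 2 μM + [5,6-3H]UTP; 20 mM Tris pH 7.5, 5 mM MgCl2, 50 mM NaCl, 1 mM EDTA/DTT. 25 °C, 60 min. Stop with TCA/pyrophosphate, filter, scintillation count; IC50 vs. untreated.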

[2] = target: T2, HCV polymerase (NS5B) type 1a (Hepatitis C virus genotype 1a, UniProt P26664); experiment: Assay of enzyme (HCV polymerase) inhibitory activity, type 1a enzyme; assay type: biochemical, HCV type 1a (cloned from the blood of patients); details: HCV polymerase inhibitory activity IC50, 1a, type 1a enzyme
T2 construct: made in house; host or cells: Escherichia coli (by the 'similar method' of the 1b enzyme)
Procedure, shortened: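 NS5B Δ47 C-term His6 (type 1a, 1.5 μg/ml); substrate RNA 5 μg/ml; ATP/GTP/CTP 50 μM, UTP 2 μM + [5,6-3H]UTP; Tris pH 7.5, MgCl2 5 mM; 25° C, 60 min. TCA/pyrophosphate stop, GF/B filter, scintillation. IC50 vs no-compound control.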

Row | SMILES | IC50 [1] | IC50 [2]
1 | CCC(F)(F)c1ccc(CNC(=O)[C@H]2CN(c3ccc4cnccc4n3)CCN2S(=O)(=O)c2ccc(OC(F)(F)F)cc2)cc1 [Example 740, (R)-4-[1,6]naphthyridin-2-yl-1-(4-trifluoromethoxy-benzenesulfonyl)-piperazine-2-carboxylic acid 4-(1,1-difluoro-propyl)-benzylamide] | < 100 nM | < 100 nM
2 | CCC(F)(F)c1ccc(CNC(=O)[C@H]2CN(c3cnc4c(Cl)cccc4n3)CCN2S(=O)(=O)c2ccc(OC(F)(F)F)cc2)cc1 [Example 741, (R)-4-(5-chloro-quinoxalin-2-yl)-1-(4-trifluoromethoxy-benzenesulfonyl)-piperazine-2-carboxylic acid 4-(1,1-difluoro-propyl)-benzylamide] | < 100 nM | 100 to 1000 nM
3 | CCC(F)(F)c1ccc(CNC(=O)[C@H]2CN(c3cnc4cccc(Cl)c4n3)CCN2S(=O)(=O)c2ccc(OC(F)(F)F)cc2)cc1 [Example 742, (R)-4-(8-chloro-quinoxalin-2-yl)-1-(4-trifluoromethoxy-benzenesulfonyl)-piperazine-2-carboxylic acid 4-(1,1-difluoro-propyl)-benzylamide] | < 100 nM | 100 to 1000 nM
4 | CCC(F)(F)c1ccc(CNC(=O)[C@H]2CN(c3cnc4cnccc4n3)CCN2S(=O)(=O)c2ccc(N3CCCC3)cc2)cc1 [Example 743, (R)-4-pyrido[3,4-b]pyrazin-2-yl-1-(4-pyrrolidin-1-yl-benzenesulfonyl)-piperazine-2-carboxylic acid 4-(1,1-difluoro-propyl)-benzylamide] | < 100 nM | < 100 nM
5 | CCC(F)(F)c1ccc(CNC(=O)[C@H]2CN(c3cnc4cncnc4n3)CCN2S(=O)(=O)c2ccc([C@H]3CC[C@H](CC(=O)O)CC3)cc2)cc1 [Example 744, trans-[4-(4-{(R)-2-[4-(1,1-difluoro-propyl)-benzylcarbamoyl]-4-pteridin-7-yl-piperazine-1-sulfonyl}-phenyl)-cyclohexyl]-acetic acid] | < 100 nM | < 100 nM
6 | O=C(NCc1ccc(OC(F)(F)F)cc1)[C@H]1CN(c2cnc3cnccc3n2)CCN1S(=O)(=O)c1ccc(OC(F)(F)F)cc1 [Example 745, (R)-4-pyrido[3,4-b]pyrazin-2-yl-1-(4-trifluoromethoxy-benzenesulfonyl)-piperazine-2-carboxylic acid 4-trifluoromethoxy-benzylamide] | < 100 nM | < 100 nM
7 | CCC(F)(F)c1ccc(CNC(=O)[C@H]2CN(c3cnc4cnccc4n3)CCN2S(=O)(=O)c2ccc(N3CCOCC3)cc2)cc1 [Example 746, (R)-1-(4-morpholin-4-yl-benzenesulfonyl)-4-pyrido[3,4-b]pyrazin-2-yl-piperazine-2-carboxylic acid 4-(1,1-difluoro-propyl)-benzylamide] | < 100 nM | < 100 nM
8 | CCC(F)(F)c1ccc(CNC(=O)[C@H]2CN(c3cnc4cncnc4n3)CCN2S(=O)(=O)c2ccc(OC)cc2)cc1 [Example 747, (R)-1-(4-methoxy-benzenesulfonyl)-4-pteridin-7-yl-piperazine-2-carboxylic acid 4-(1,1-difluoro-propyl)-benzylamide] | < 100 nM | < 100 nM
9 | CCC(F)(F)c1ccc(CNC(=O)[C@H]2CN(c3ccc4nccnc4n3)CCN2S(=O)(=O)c2ccc(OC(F)(F)F)cc2)cc1 [Example 748, (R)-4-pyrido[2,3-b]pyrazin-6-yl-1-(4-trifluoromethoxy-benzenesulfonyl)-piperazine-2-carboxylic acid 4-(1,1-difluoro-propyl)-benzylamide] | < 100 nM | < 100 nM
10 | O=C(NCc1ccc(OC(F)(F)F)cc1)[C@H]1CN(c2cnc3nccnc3n2)CCN1S(=O)(=O)c1ccc(OC(F)(F)F)cc1 [Example 749, (R)-4-pyrazino[2,3-b]pyrazin-2-yl-1-(4-trifluoromethoxy-benzenesulfonyl)-piperazine-2-carboxylic acid 4-trifluoromethoxy-benzylamide] | < 100 nM | < 100 nM
11 | O=C(NCc1ccc(OC(F)(F)F)cc1)[C@H]1CN(c2ccn3ncnc3n2)CCN1S(=O)(=O)c1ccc(OC(F)(F)F)cc1 [Example 750, (R)-4-[1,2,4]triazolo[1,5-a]pyrimidin-5-yl-1-(4-trifluoromethoxy-benzenesulfonyl)-piperazine-2-carboxylic acid 4-trifluoromethoxy-benzylamide] | < 100 nM | < 100 nM
12 | CCC(F)(F)c1ccc(CNC(=O)[C@H]2CN(c3cnc4cnccc4n3)CCN2S(=O)(=O)c2ccc(N3CCCC3=O)cc2)cc1 [Example 751, (R)-1-[4-(2-oxo-pyrrolidin-1-yl)-benzenesulfonyl]-4-pyrido[3,4-b]pyrazin-2-yl-piperazine-2-carboxylic acid 4-(1,1-difluoro-propyl)-benzylamide] | < 100 nM | < 100 nM
13 | O=C(NCc1ccc(OC(F)(F)F)cc1)[C@H]1CN(c2cnc3cnccc3n2)CCN1S(=O)(=O)c1ccc(Cl)cc1 [Example 752, (R)-1-(4-chloro-benzenesulfonyl)-4-pyrido[3,4-b]pyrazin-2-yl-piperazine-2-carboxylic acid 4-trifluoromethoxy-benzylamide] | < 100 nM | < 100 nM
14 | CCC(F)(F)c1ccc(CNC(=O)[C@H]2CN(c3cnc4cncnc4n3)CCN2S(=O)(=O)c2ccc(-c3cccc(C(=O)O)c3)cc2)cc1 [Example 753, 4′-{(R)-2-[4-(1,1-difluoro-propyl)-benzylcarbamoyl]-4-pteridin-7-yl-piperazine-1-sulfonyl}-biphenyl-3-carboxylic acid] | < 100 nM | < 100 nM
15 | O=C(NCc1ccc(OC(F)(F)F)cc1)[C@H]1CN(c2cnc3cnccc3n2)CCN1S(=O)(=O)c1ccc([N+](=O)[O-])cc1 [Example 754, (R)-1-(4-nitro-benzenesulfonyl)-4-pyrido[3,4-b]pyrazin-2-yl-piperazine-2-carboxylic acid 4-trifluoromethoxy-benzylamide] | < 100 nM | < 100 nM
16 | O=C(NCc1ccc(OC(F)(F)F)cc1)[C@H]1CN(c2cnc3cnccc3n2)CCN1S(=O)(=O)c1ccc(N2CCCC2)cc1 [Example 755, (R)-4-pyrido[3,4-b]pyrazin-2-yl-1-(4-pyrrolidin-1-yl-benzenesulfonyl)-piperazine-2-carboxylic acid 4-trifluoromethoxy-benzylamide] | < 100 nM | < 100 nM
17 | CCC(F)(F)c1ccc(CNC(=O)[C@H]2CN(c3nc4ccncc4[nH]3)CCN2S(=O)(=O)c2ccc(OC(F)(F)F)cc2)cc1 [Example 756, (R)-4-(3H-imidazo[4,5-c]pyridin-2-yl)-1-(4-trifluoromethoxy-benzenesulfonyl)-piperazine-2-carboxylic acid 4-(1,1-difluoro-propyl)-benzylamide] | < 100 nM | < 100 nM
18 | O=C(NCc1ccc(OC(F)(F)F)cc1)[C@H]1CN(c2cnc3cnccc3n2)CCN1S(=O)(=O)c1ccc(C(F)(F)F)cc1 [Example 757, (R)-4-pyrido[3,4-b]pyrazin-2-yl-1-(4-trifluoromethyl-benzenesulfonyl)-piperazine-2-carboxylic acid 4-trifluoromethoxy-benzylamide] | < 100 nM | < 100 nM
19 | CCC(F)(F)c1ccc(CNC(=O)[C@H]2CN(c3nc4ccccc4[nH]3)CCN2S(=O)(=O)c2ccc(OC(F)(F)F)cc2)cc1 [Example 758, (R)-4-(1H-benzimidazol-2-yl)-1-(4-trifluoromethoxy-benzenesulfonyl)-piperazine-2-carboxylic acid 4-(1,1-difluoro-propyl)-benzylamide] | < 100 nM | < 100 nM
20 | CCC(F)(F)c1ccc(CNC(=O)[C@H]2CN(c3cnc4cncnc4n3)CCN2S(=O)(=O)c2ccc(-c3nc(=O)o[nH]3)cc2)cc1 [Example 759, (R)-1-[4-(5-oxo-2,5-dihydro-[1,2,4]oxadiazol-3-yl)-benzenesulfonyl]-4-pteridin-7-yl-piperazine-2-carboxylic acid 4-(1,1-difluoro-propyl)-benzylamide] | < 100 nM | < 100 nM
21 | CCC(F)(F)c1ccc(CNC(=O)[C@H]2CN(c3cnc4cccnc4n3)CCN2S(=O)(=O)c2ccc(OC(F)(F)F)cc2)cc1 [Example 760, (R)-4-pyrido[2,3-b]pyrazin-3-yl-1-(4-trifluoromethoxy-benzenesulfonyl)-piperazine-2-carboxylic acid 4-(1,1-difluoro-propyl)-benzylamide] | < 100 nM | < 100 nM
22 | CCC(F)(F)c1ccc(CNC(=O)[C@H]2CN(c3cnc4ncccc4n3)CCN2S(=O)(=O)c2ccc(OC(F)(F)F)cc2)cc1 [Example 761, (R)-4-pyrido[2,3-b]pyrazin-2-yl-1-(4-trifluoromethoxy-benzenesulfonyl)-piperazine-2-carboxylic acid 4-(1,1-difluoro-propyl)-benzylamide] | < 100 nM | < 100 nM
23 | O=C(NCc1ccc(OC(F)(F)F)cc1)[C@H]1CN(c2ccc3nccnc3n2)CCN1S(=O)(=O)c1ccc(OC(F)(F)F)cc1 [Example 762, (R)-4-pyrido[2,3-b]pyrazin-6-yl-1-(4-trifluoromethoxy-benzenesulfonyl)-piperazine-2-carboxylic acid 4-trifluoromethoxy-benzylamide] | < 100 nM | < 100 nM
